Experimental data taken from ChEMBL document CHEMBL1157879.
Calls of active or inactive are those of the source. The rule behind the calls is not given here.

Assays:
[1] = target: Lysosomal alpha-glucosidase (Homo sapiens) (UniProt P10253); experiment: Activation of purified human recombinant acid alpha-glucosidase using resorufin alpha-D-glucopyranoside as substrate at 100 uM after 45 mins relative to basal
[2] = target: Lysosomal alpha-glucosidase (Homo sapiens) (UniProt P10253); experiment: Activation of purified human recombinant acid alpha-glucosidase using glycogen as substrate up to 100 uM after 45 mins
[3] = target: Lysosomal alpha-glucosidase (Homo sapiens) (UniProt P10253); experiment: Activation of purified human recombinant acid alpha-glucosidase using 4-methylumbelliferyl-alpha-D-glucopyranoside as substrate after 45 mins relative to basal
[4] = target: T1, Alpha-galactosidase A (Homo sapiens) (UniProt P06280); experiment: Activation of purified alpha-galactosidase A using 4-methylumbelliferyl-alpha-D-galactoside as substrate after 45 mins relative to basal
T1 sequence (whole entry): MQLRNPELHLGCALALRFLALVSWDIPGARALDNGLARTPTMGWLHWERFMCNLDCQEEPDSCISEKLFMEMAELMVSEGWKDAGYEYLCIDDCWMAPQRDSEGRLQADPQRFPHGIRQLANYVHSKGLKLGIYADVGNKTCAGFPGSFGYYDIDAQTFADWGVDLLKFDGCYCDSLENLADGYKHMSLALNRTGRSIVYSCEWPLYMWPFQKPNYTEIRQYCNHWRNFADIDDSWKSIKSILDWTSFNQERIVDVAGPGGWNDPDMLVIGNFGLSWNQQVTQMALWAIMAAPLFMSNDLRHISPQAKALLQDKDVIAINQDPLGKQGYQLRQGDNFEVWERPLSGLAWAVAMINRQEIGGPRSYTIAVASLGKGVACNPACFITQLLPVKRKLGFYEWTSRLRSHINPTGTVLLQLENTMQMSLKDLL

[5] = target: Lysosomal alpha-glucosidase (Homo sapiens) (UniProt P10253); experiment: Activation of purified acid alpha-glucosidase in human spleen homogenates using resorufin alpha-D-glucopyranoside as substrate at 10 uM after 45 mins relative to basal
[6] = target: Lysosomal alpha-glucosidase (Homo sapiens) (UniProt P10253); experiment: Activation of purified human recombinant acid alpha-glucosidase using resorufin alpha-D-glucopyranoside as substrate after 45 mins relative to basal
[7] = target: Lysosomal alpha-glucosidase (Homo sapiens) (UniProt P10253); experiment: Activation of purified acid alpha-glucosidase in human spleen homogenates using 4-methylumbelliferyl-alpha-D-glucopyranoside as substrate after 45 mins relative to basal
[8] = target: Lysosomal alpha-glucosidase (Homo sapiens) (UniProt P10253); experiment: Activation of purified acid alpha-glucosidase in human spleen homogenates using resorufin alpha-D-glucopyranoside as substrate after 45 mins relative to basal

Compound	Activity [1]	also measured
CCCN1CNc2c(c(=O)[nH]c(=S)n2CC(C)(C)C)C1	inactive	–
CCCN1CNc2c(c(=O)[nH]c(=S)n2CCc2c(OC)cccc2OC)C1	227%	–
CCCN1CNc2c(c(=O)[nH]c(=S)n2CCc2ccc(Cl)cc2Cl)C1	321%	–
COc1ccc(CCn2c3c(c(=O)[nH]c2=S)CN(CC(C)C)CN3)cc1OC	338%	Activity [2]: inactive
Clc1ncc(C#Cc2ccccc2)c2ncncc12	inactive	–
CCCN1CNc2c(c(=O)[nH]c(=S)n2CCc2ccc(OC)cc2)C1	309%	–
COc1ccc(CCc2c[nH]c(=O)c3cncnc23)cc1OC	inactive	–
COc1ccc(CCn2c3c(c(=O)[nH]c2=O)C(NC(=O)c2cccs2)(C(F)(F)F)C(=O)N3)cc1OC (stereo unspecified)	64.2%	–
COc1ccc(CCn2c3c(c(=O)[nH]c2=S)CN(C(C)C)CN3)cc1OC	234%	Activity [3]: Dose-dependent effect; Activity [4]: inactive
CCCN1CNc2c(c(=O)[nH]c(=S)n2CCc2ccc(C)cc2)C1	300%	–
CCCN1CNc2c(c(=O)[nH]c(=S)n2CCc2ccc(C)cc2C)C1	323%	–
CCCN1CNc2c(c(=O)[nH]c(=S)n2CCc2ccsc2)C1	192%	–
CCCN1CNc2c(c(=O)[nH]c(=S)n2CCc2ccccn2)C1	30.6%	–
COc1ccc(CCn2c3c(c(=O)[nH]c2=S)CN(c2ccccc2)CN3)cc1OC	275%	–
COc1ccc(CCn2c(=S)[nH]c(=O)c3nccnc32)cc1OC	inactive	–
CCCN1CNc2c(c(=O)[nH]c(=S)n2CCc2cccc(OC)c2OC)C1	262%	–
CCCN1CNc2c(c(=O)[nH]c(=S)n2CCc2c(C)cccc2C)C1	112%	–
CCCN1CNc2c(c(=O)[nH]c(=S)n2CCc2cc(C)cc(C)c2)C1	218%	–
COc1ccc(CCn2c(=S)[nH]c(=O)c3c(C)cc(C)nc32)cc1OC	inactive	–
CCCN1CNc2c(c(=O)[nH]c(=S)n2CCc2ccccc2OC)C1	243%	–
CCCN1CNc2c(c(=O)[nH]c(=S)n2CCCc2ccccc2)C1	166%	–
CCCN1CNc2c(c(=O)[nH]c(=S)n2CCc2ccc(Cl)c(Cl)c2)C1	88.8%	–
COc1ccc(CCn2c3c(c(=O)[nH]c2=S)CN(Cc2ccccc2)CN3)cc1OC	335%	–
CCCN1CNc2c(c(=O)[nH]c(=S)n2CCc2ccc(Cl)cc2)C1	120%	–

Further lines, with some results ahead:

Activity [1]	Compound	also measured
282%	COc1ccc(CCn2c3c(c(=O)[nH]c2=S)CN(C)CN3)cc1OC	–
325%	CCCN1CNc2c(c(=O)[nH]c(=S)n2CCc2cc(Cl)ccc2Cl)C1	–
316%	CCCN1CNc2c(c(=O)[nH]c(=S)n2CCc2cc(Cl)cc(Cl)c2)C1	–
inactive	CCCN1CNc2c(c(=O)[nH]c(=S)n2CCC)C1	–
365%	CCCN1CNc2c(c(=O)[nH]c(=S)n2Cc2ccc(OCC)c(OCC)c2)C1	Activity [2]: inactive; Activity [3]: Dose-dependent effect; Activity [4]: inactive
332%	CCCN1CNc2c(c(=O)[nH]c(=S)n2CCc2cc(OC)cc(OC)c2)C1	–
inactive	O=c1[nH]cc(C#Cc2ccccc2)c2ncncc12	–
inactive	COc1ccc(CCn2c(=S)[nH]c(=O)c3nc[nH]c32)cc1OC	–
197%	CCCN1CNc2c(c(=O)[nH]c(=S)n2CCc2cccc(Cl)c2)C1	–
338%	CCCN1CNc2c(c(=O)[nH]c(=S)n2CCc2ccc(C)c(C)c2)C1	–
327%	CCCN1CNc2c(c(=O)[nH]c(=S)n2CCc2cc(OC)ccc2OC)C1	–
300%	CCCN1CNc2c(c(=O)[nH]c(=S)n2CCc2cccc(C)c2C)C1	–
308%	CCCN1CNc2c(c(=O)[nH]c(=S)n2CCc2ccc(OC)cc2OC)C1	–
142%	CCCN1CNc2c(c(=O)[nH]c(=S)n2CCc2ccccc2)C1	–
inactive	CCCCn1c(N)c(NCC)c(=O)[nH]c1=O	–
302%	CCCN1CNc2c(c(=O)[nH]c(=S)n2CCc2cccc(OC)c2)C1	–
332%	CCCN1CNc2c(c(=O)[nH]c(=S)n2CCc2c(Cl)cccc2Cl)C1	Activity [2]: inactive; Activity [3]: Dose-dependent effect; Activity [4]: inactive

Activity [1]	Compound	also measured
32.1%	COc1ccc(CCn2c(N)cc(=O)[nH]c2=S)cc1OC	–
136%	CCCN1CNc2c(c(=O)[nH]c(=S)n2CCc2ccccc2C)C1	–
inactive	CCCN1CNc2c(c(=O)[nH]c(=S)n2CC(C)C)C1	–
inactive	COc1ccc(C#Cc2cnc(Cl)c3cncnc23)cc1OC	–
inactive	O=c1[nH]cc(CCc2ccccc2)c2ncncc12	–
295%	CCCN1CNc2c(c(=O)[nH]c(=S)n2CCc2cccc(C)c2)C1	–
221%	CCCN1CNc2c(c(=O)[nH]c(=S)n2CCc2cccs2)C1	–
328%	CCCN1CNc2c(c(=O)[nH]c(=S)n2CCc2ccc3c(c2)OCCO3)C1	–
297%	CCCN1CNc2c(c(=O)[nH]c(=O)n2CCc2ccc(OC)c(OC)c2)C1	–
356%	CCCN1CNc2c(c(=O)[nH]c(=S)n2CCc2ccc(OC)c(OC)c2)C1	fold change (FC) [5]: 1.5; Activity [6]: Dose-dependent effect; Activity [7]: Dose-dependent effect; Activity [8]: Dose-dependent effect; Activity [2]: inactive; Activity [3]: Dose-dependent effect; Activity [4]: inactive
346%	CCCN1CNc2c(c(=O)[nH]c(=S)n2CCc2cccc(Cl)c2Cl)C1	Activity [2]: inactive; Activity [3]: Dose-dependent effect; Activity [4]: inactive
245%	CCCN1CNc2c(c(=O)[nH]c(=S)n2CCc2cc(C)ccc2C)C1	–
inactive	COc1ccc(C#Cc2c[nH]c(=O)c3cncnc23)cc1OC	–
306%	CCCN1CNc2c(c(=O)[nH]c(=S)n2CCc2ccc(OCC)c(OCC)c2)C1	–
311%	CCCN1CNc2c(c(=O)[nH]c(=S)n2CCc2ccccc2Cl)C1	–
121%	COc1ccc(C(=O)NC2(C(F)(F)F)C(=O)Nc3c2c(=O)[nH]c(=O)n3CCc2ccc(OC)c(OC)c2)cc1 (stereo unspecified)	–
